From US7524860B2, “Antibacterial agents” (Pfizer Inc., priority 2004, dated 2009) come the findings set out here.

≈ marks a conversion by molar mass, not a printed value. A value given as a limit tells only on which side of the number the result lay.

The subject of this assay is Neisseria gonorrhoeae, GC525 (NG-2888). The assay is described as follows: in-vitro antibacterial activity, microbroth dilution MIC susceptibility testing. Format: cell-based. The following applies: Neisseria gonorrhoeae, microbroth dilution in gonococcal broth, 20-24 hours at 35 C, lowest concentration preventing visible growth, read-out: MIC. The protocol: The in-vitro antibacterial activity of selected compounds was determined against a stain of Neisseria gonorrhoeae, GC525 (NG-2888), which is described by Rouquette-Loughlin et al, in Journal of Bacteriology, February 2003, p. 1101-1106, at p. 1103. In general, minimum inhibitory concentration (MIC) susceptibility testing followed procedures recommended by the National Committee for Clinical Laboratory Standards (NCCLS^1-2) or followed the descriptions described below:
Neisseria gonorrhoeae strains were grown on Chocolate Agar II plates (BBL—Becton Dickinson Microbiology Systems, Cockeysville, Md.) and incubated at 35° C. in a humidified 5% CO2 incubator (Form a Scientific, Marietta Ohio). For microbroth dilution MIC testing, N. gonorrhoeae were tested in gonococcal broth (GCB):
Gram stains were also utilized. Permanent Stock Culture Collection
Bacterial stock cultures are stored as frozen suspensions at −70 C. N. gonorrhoeae cultures are suspended in inactivated Horse Serum (Colorado Serum Company, Denver, Colo.) containing 7.5% glucose prior to snap freezing in a dry ice/ethanol bath.
Preparation of Standardized Test Inocula and Plate Inoculation
Frozen stock cultures were used as the initial source of organisms for performing microbroth dilution MIC testing. Stock cultures were passed on their respective growth medium at least one growth cycle (18-24 hours) prior to their use. Bacterial culture suspensions were prepared directly from Chocolate Agar II plates into 10 mL cation-adjusted Mueller-Hinton Broth (CAMHB, BBL, # BB215069). Before use, cultures were adjusted to an optical density value of 1.6-2 on a Perkin-Elmer Lambda EZ150 Spectrophotometer (Wellesley, Mass.) set at a wavelength of 600 nm. Random cultures were plated for validation of actual colony counts. The adjusted cultures were diluted 400-fold (0.25 mL inoculum+100 mL GCB) into gonococcal broth producing a starting inoculum of approximately 5×10^5 cfu/mL. These cultures were inoculated into test plates (100 uL/well) using a Biomek® FX workstation (Beckman Coulter Inc., Fullerton, Calif.). The inoculated plates were placed in stacks of no more than 4 and covered with an empty plate. Plates were incubated for 20-24 hours at 35 C in a humidified CO2 incubator.
Test Compound (“Drug”) Preparation
Drug stock solutions (2 mg/mL in DMSO) were prepared on the day of testing. Drugs were weight corrected for assay content where necessary.
Drug Dilution Tray Preparation
Microbroth dilution stock plates were prepared in two dilution series, 64-0.06 ug drug/mL and 1-0.001 ug drug/mL. For the high concentration series, 200 uL of stock solution (2 mg/mL) was added to duplicate rows of a 96-well plate. This was used as the first well in the dilution series. Serial two-fold decremental dilutions were made using a BioMek FX robot (Beckman Coulter Inc., Fullerton, Calif.) with 10 of the remaining 11 wells, each of which contained 100 uL of the appropriate solvent/diluent. Row 12 contained solvent/diluent only and served as the control. For tube one of the low concentration series, 200 uL of a 31.25 ug/mL stock was added to duplicate rows of a 96-well plate. Serial two-fold dilutions were made as described above.
Daughter plates were spotted (3.2 uL/well) from the stock plates listed above using the BioMek FX robot and were inoculated with organism (100 uL/well) as described previously.
After incubation, the degree of growth in each well was read visually with the aid of a Test Reading Mirror (Dynatech Lab 220-16, Dynex Technologies, Chantilly, Va.). 96-well test plates are read in a darkened room with a single light shining from above. The MIC is the lowest concentration of drug that prevents macroscopically visible growth under the conditions of the test. […] If MIC values in duplicate tests differ by 1 well (two-fold), the […] value is reported. If duplicate tests vary by 2 dilutions (four-fold), the middle value is reported.
Background: In broth dilution the organism is exposed to a series of concentrations in liquid medium.
Turning to `CCNC(=O)Nc1nc2cc(-c3cccc(F)c3)cc(C(=O)NCC)n2n1` [Example 70, 2-(3-Ethyl-ureido)-7-(3-fluoro-phenyl)-[1,2,4]triazolo[1,5-a]pyridine-5-carboxylic acid ethylamide], the minimum inhibitory concentration (MIC) turned out to be 1 µg/mL (≈ 2.7 µM). The value for `CCNC(=O)Nc1nc2cc(-c3ccccc3)cc(C(=O)NCC)n2n1` [Example 71, 2-(3-Ethyl-ureido)-7-phenyl-[1,2,4]triazolo[1,5-a]pyridine-5-carboxylic acid ethylamide] was 4 µg/mL (≈ 11.4 µM); that for `CCNC(=O)Nc1nc2cc(-c3ccccc3F)cc(C(=O)NCC)n2n1` [Example 72, 2-(3-Ethyl-ureido)-7-(2-fluoro-phenyl)-[1,2,4]triazolo[1,5-a]pyridine-5-carboxylic acid ethylamide] was 4 µg/mL (≈ 10.8 µM); that for `CCNC(=O)Nc1nc2cc(-c3ccccc3C)cc(C(=O)NCC)n2n1` [Example 73, 2-(3-Ethyl-ureido)-7-o-tolyl-[1,2,4]triazolo[1,5-a]pyridine-5-carboxylic acid ethylamide] was 16 µg/mL (≈ 43.7 µM).

Turning to `CCNC(=O)Nc1nc2cc(-c3cccnc3)cc(C(=O)NC3CCC3)n2n1` [Example 75, 2-(3-Ethyl-ureido)-7-pyridin-3-yl-[1,2,4]triazolo[1,5-a]pyridine-5-carboxylic acid cyclobutylamide], the MIC came to 2 µg/mL (≈ 5.27 µM). With `CCNC(=O)Nc1nc2cc(-c3cccnc3)cc(C(=O)N(C)Cc3cc(C)no3)n2n1` [Example 76, 2-(3-Ethyl-ureido)-7-pyridin-3-yl-[1,2,4]triazolo[1,5-a]pyridine-5-carboxylic acidmethyl-(3-methyl-isoxazol-5-yl-methyl)-amide], the minimum inhibitory concentration (MIC) was 8 µg/mL (≈ 18.4 µM). The value for `CCNC(=O)Nc1nc2cc(-c3cccnc3)cc(C(=O)N3CCCC3C)n2n1` (stereo not shown) [Example 77, 1-Ethyl-3-[5-(2-methyl-pyrrolidine-1-carbonyl)-7-pyridin-3-yl-[1,2,4]triazolo[1,5-a]pyridin-2-yl]-urea] was 1 µg/mL (≈ 2.54 µM); that for `CCNC(=O)Nc1nc2cc(-c3cccc4ncccc34)cc(C(=O)NCC)n2n1` [Example 78, 2-(3-Ethyl-ureido)-7-quinolin-5-yl-[1,2,4]triazolo[1,5-a]pyridine-5-carboxylic acid ethylamide] was 8 µg/mL (≈ 19.8 µM); that for `CCNC(=O)Nc1nc2cc(-c3ccc(OC(C)C)cc3)cc(C(=O)NCC)n2n1` [Example 80, 2-(3-Ethyl-ureido)-7-(4-isopropoxy-phenyl)-[1,2,4]triazolo[1,5-a]pyridine-5-carboxylic acid ethylamide] was over 64 µg/mL. With `CCNC(=O)Nc1nc2cc(-c3cccc(C#N)c3)cc(C(=O)NCC)n2n1` [Example 81, 7-(3-Cyano-phenyl)-2-(3-ethyl-ureido)-[1,2,4]triazolo[1,5-a]pyridine-5-carboxylic acid ethylamide] the figure was 2 µg/mL (≈ 5.3 µM). With `CCNC(=O)Nc1nc2cc(-c3ccccc3C(F)(F)F)cc(C(=O)NCC)n2n1` [Example 82, 2-(3-Ethyl-ureido)-7-(2-trifluoromethyl-phenyl)-[1,2,4]triazolo[1,5-a]pyridine-5-carboxylic acid ethylamide] the figure was over 64 µg/mL. For the compound `CCNC(=O)Nc1nc2cc(-c3cccnc3)cc(C(=O)N(C)C(C)c3ccncc3)n2n1` (stereo not shown) [Example 86, 2-(3-Ethyl-ureido)-7-pyridin-3-yl-[1,2,4]triazolo[1,5-a]pyridine-5-carboxylic acid methyl-(1-pyridin-4-yl-ethyl)-amide], the MIC came out at 16 µg/mL (≈ 36 µM). The value for `CCNC(=O)Nc1nc2cc(-c3cccnc3)cc(C(=O)NCc3cnccc3C(F)(F)F)n2n1` [Example 87, 2-(3-Ethyl-ureido)-7-pyridin-3-yl-[1,2,4]triazolo[1,5-a]pyridine-5-carboxylic acid(4-trifluoromethyl-pyridin-3-ylmethyl)-amide] was 8 µg/mL (≈ 16.5 µM); that for `CCNC(=O)Nc1nc2cc(-c3cccnc3)cc(C(=O)N(CC)Cc3ccncc3)n2n1` [Example 88, 2-(3-Ethyl-ureido)-7-pyridin-3-yl-[1,2,4]triazolo[1,5-a]pyridine-5-carboxylic acidethyl-pyridin-4-ylmethyl-amide] was 8 µg/mL (≈ 18 µM); that for `CCNC(=O)Nc1nc2cc(-c3cccnc3)cc(C(=O)N(C)Cc3ncccc3C)n2n1` [Example 89, 2-(3-Ethyl-ureido)-7-pyridin-3-yl-[1,2,4]triazolo[1,5-a]pyridine-5-carboxylic acid methyl-(3-methyl-pyridin-2-yl-methyl)-amide] was 8 µg/mL (≈ 18 µM). With `CCNC(=O)Nc1nc2cc(-c3cccnc3)cc(C(=O)N(C)C(C)c3ccccn3)n2n1` (stereo not shown) [Example 90, 2-(3-Ethyl-ureido)-7-pyridin-3-yl-[1,2,4]triazolo[1,5-a]pyridine-5-carboxylic acidmethyl-(1-pyridin-2-yl-ethyl)-amide] the figure was over 64 µg/mL. The value for `CCNC(=O)Nc1nc2cc(-c3cccnc3)cc(C(=O)NCc3cccnc3)n2n1` [Example 91, 2-(3-Ethyl-ureido)-7-pyridin-3-yl-[1,2,4]triazolo[1,5-a]pyridine-5-carboxylic acid(pyridin-3-ylmethyl)-amide] was 16 µg/mL (≈ 38.4 µM); that for `CCNC(=O)Nc1nc2cc(-c3cccnc3)cc(C(=O)N(Cc3ccncc3)CC3CCCO3)n2n1` (stereo not shown) [Example 92, 2-(3-Ethyl-ureido)-7-pyridin-3-yl-[1,2,4]triazolo[1,5-a]pyridine-5-carboxylic acidpyridin-4-ylmethyl-(tetrahydro-furan-2-ylmethyl)-amide] was 8 µg/mL (≈ 16 µM); that for `CCNC(=O)Nc1nc2cc(-c3cccnc3)cc(C(=O)NC(C)c3ccncc3)n2n1` (stereo not shown) [Example 93, 2-(3-Ethyl-ureido)-7-pyridin-3-yl-[1,2,4]triazolo[1,5-a]pyridine-5-carboxylic acid (1-pyridin-4-yl-ethyl)-amide] was 2 µg/mL (≈ 4.65 µM).

In the case of `CCNC(=O)Nc1nc2cc(-c3ccncc3Cl)cc(C(=O)NCC)n2n1` [Example 95, 7-(3-Chloro-pyridin-4-yl)-2-(3-ethyl-ureido)-[1,2,4]triazolo[1,5-a]pyridine-5-carboxylic acid ethylamide], the minimal inhibitory concentration (MIC) amounted to 32 µg/mL (≈ 82.5 µM).

Consider `CCNC(=O)Nc1nc2cc(-c3ccc(OC)nc3)cc(C(=O)NCC)n2n1` [Example 96, 2-(3-Ethyl-ureido)-7-(6-methoxy-pyridin-3-yl)-[1,2,4]triazolo[1,5-a]pyridine-5-carboxylic acidethylamide], for which the MIC turned out to be 2 µg/mL (≈ 5.22 µM). With `CCNC(=O)Nc1nc2cc(-c3cnc(OC)nc3OC)cc(C(=O)NCC)n2n1` [Example 98, 7-(2,4-Dimethoxy-pyrimidin-5-yl)-2-(3-ethyl-ureido)-[1,2,4]triazolo[1,5-a]pyridine-5-carboxylic acid ethylamide] the figure was 2 µg/mL (≈ 4.83 µM); with `CCNC(=O)Nc1nc2cc(-c3cccc(C(F)(F)F)c3)cc(C(=O)NCC)n2n1` [Example 99, 2-(3-Ethyl-ureido)-7-(3-trifluoromethyl-phenyl)-[1,2,4]triazolo[1,5-a]pyridine-5-carboxylic acid ethylamide], 8 µg/mL (≈ 19 µM). The value for `CCNC(=O)Nc1nc2cc(-c3ccc(OC)cc3OC)cc(C(=O)NCC)n2n1` [Example 102, 7-(2,4-Dimethoxy-phenyl)-2-(3-ethyl-ureido)-[1,2,4]triazolo[1,5-a]pyridine-5-carboxylic acid ethylamide] was over 64 µg/mL; that for `CCNC(=O)Nc1nc2cc(-c3cc(C)c(OC)c(C)c3)cc(C(=O)NCC)n2n1` [Example 103, 2-(3-Ethyl-ureido)-7-(4-methoxy-3,5-dimethyl-phenyl)-[1,2,4]triazolo[1,5-a]pyridine-5-carboxylic acid ethylamide] was over 64 µg/mL.

As a reminder, the MIC is the smallest concentration in the dilution series that meets the test's criterion for growth inhibition.
